Measured values published in US20120020940A1, “ANTIMICROBIAL PEPTIDES” (Helmholtz Zentrum München Deutsches Forschungszentrum Für …, priority 2008, published 2012).
No end group written: not given here.

What was measured:
[1] = system: Clavibacter michiganensis; experiment: MIC and lethal concentration (Example 3); type: cell-based; conditions: Table 2; for MIC (>90% inhibition): 1-2 days at 25° C.; for LC, lethal concentration (100% inhibition): at least 4 days of incubation
Description: (§1) In-vitro inhibition assays were performed in sterile flat-bottom 96-well plates (Greiner bio-one, Frickenhausen). Antimicrobial peptides were dissolved in 0.01% acetic acid containing 0.2% BSA (500 μg/ml), filter sterilized and stored at −20° C. For inhibition assays dilutions of peptides ranging from 5 to 200 μg/ml were prepared and 10 μl (antibacterial assay) or 20 μl (antifungal assay) of each concentration was loaded per well.
(§2) Bacteria colonies from overnight agar plate cultures were resuspended into 5 ml LB-medium or HPG-medium (OD600 nm=0.08-0.1) and diluted into LB-medium/HPG-medium (1:100). 90 μl of this suspension containing about 10^5-10^6 CFU/ml of tested bacteria were added to each well resulting in final peptide concentrations of 0, 0.5, 1, 2, 5, 10, and 20 μg/ml. […] The lowest concentration, in which there is no observable growth (>90% inhibition) is referred to as minimal inhibitory concentration (MIC). […] For each peptide concentration two identical inhibition assays were performed.

[2] = system: Pectobacterium carotovorum; experiment: MIC and lethal concentration (Example 3); type: cell-based; conditions: Table 2; for MIC (>90% inhibition): 1-2 days at 25° C.; for LC, lethal concentration (100% inhibition): at least 4 days of incubation
Description: as §1, §2

Pseudomonas corrugata [3] = experiment: MIC and lethal concentration (Example 3); type: cell-based; conditions: Table 2; for MIC (>90% inhibition): 1-2 days at 25° C.; for LC, lethal concentration (100% inhibition): at least 4 days of incubation
Description: as §1, §2

[4] = system: Pseudomonas syringae pv. syringae; experiment: MIC and lethal concentration (Example 3); type: cell-based; conditions: Table 2; for MIC (>90% inhibition): 1-2 days at 25° C.; for LC, lethal concentration (100% inhibition): at least 4 days of incubation
Description: as §1, §2

[5] = system: Pseudomonas syringae pv. tomato; experiment: MIC and lethal concentration (Example 3); type: cell-based; conditions: Table 2; for MIC (>90% inhibition): 1-2 days at 25° C.; for LC, lethal concentration (100% inhibition): at least 4 days of incubation
Description: as §1, §2

Xanthomonas vesicatoria [6] = experiment: MIC and lethal concentration (Example 3); type: cell-based; conditions: Table 2; for MIC (>90% inhibition): 1-2 days at 25° C.; for LC, lethal concentration (100% inhibition): at least 4 days of incubation
Description: as §1, §2

Alternaria alternata = experiment: MIC, antifungal in-vitro inhibition assay (Example 2); type: cell-based; conditions: Table 1
Description: as §1
(§3) Spores of fungi were collected by water washes of sporulating cultures grown on 2% malt extract agar and spore concentration was determined by microscopy. The concentration of the spores was adjusted to 1.5-2×10^3 spores/ml in 2% malt extract medium and 80 μl of fungal spores were added per well. The final peptide concentrations used in the fungal inhibition assays were […]. After overnight incubation at room temperature the plate were put on a rotary shaker (300 rpm) for further two days to ensure consistantly growth. Antifungal effects of the peptides were determined by a microplate reader (Alternaria, Fusarium) at OD590 nm or by visual screening of the plates (Botrytis, Cladosporium).
(§4) The lowest peptide concentration leading to complete inhibition of bacterial growth or spore germination/mycelial growth (minimal inhibition concentration, MIC) was determined for each organism-peptide combination. For each peptide concentration two identical inhibition assays were performed.

Botrytis cinerea = experiment: as above; type: cell-based; conditions: Table 1
Description: as §1, §3, §4

Cladosporium herbarum = experiment: as above; type: cell-based; conditions: Table 1
Description: as §1, §3, §4

human erythrocytes = experiment: Hemolytic activity, hemoglobin release; type: cell-based; conditions: 45 min at 37° C., Table 3
Description: The hemolytic activity of the peptides was evaluated by determining hemoglobin release of suspensions of fresh human erythrocytes at 405 nm. Human red blood cells were centrifuged and washed three times with Tris-buffer (10 mM Tris, 150 mM NaCl, pH 7.4). Eighty μl of human red blood cells (1.5×10^9/ml) were added to 20 μl of the peptides solution (peptides dissolved in 0.2% BSA, 0.01% HAc) in 96-well plates (Greiner bio-one, Frickenhausen) and incubated for 45 min at 37° C. The endconcentration of the peptides were 0, 20, 50, 100 and 200 μg/ml. After centrifugation (1500×g, 5 min, 20° C.) 30 μl aliquots of the supernatant were transferred to 96-well plates containing 100 μl water. Hemolysis was measured by absorbance at 405 nm with a microplate reader. 100% hemolysis were determined in 2% SDS. The hemolysis percentage was calculated using the following equation: % hemolysis=[(Abs405 nm in the peptide solution−Abs405 nm in peptides solvent)/(Abs405 nm in 2% SDS−Abs405 nm in peptide solvent)]×100.
Further hemolytic activities of the various peptides of the present invention may be taken from the table depicted in example 3, last row indicated as “Hemolytic activity”. In connection therewith, however, the concentrations are stated where at least 50% hemolysis was observed.

[7] = system: Clavibacter michiganensis sub. michiganensis; conditions: overnight 25° C., Table 1
[8] = system: Pectobacterium carotovorum sub. carotovorum; conditions: Pectobacterium carotovorum sub. carotovorum; overnight 25° C.; Table 1
Xanthomonas vesicatoria [9] = conditions: Xanthomonas vesicatoria; overnight 25° C.; Table 1
[10] = system: Pseudomonas syringae pv. tomato; conditions: Pseudomonas syringae pv. tomato; overnight 25° C.; Table 1
[11] = system: Pseudomonas syringae pv. syringae; conditions: Pseudomonas syringae pv. syringae; overnight 25° C.; Table 1
Pseudomonas corrugata [12] = conditions: Pseudomonas corrugata; overnight 25° C.; Table 1

| Substance | MIC (>90% inhibition) [1] | LC, lethal concentration (100% inhibition) [1] | MIC (>90% inhibition) [2] | LC, lethal concentration (100% inhibition) [2] | MIC (>90% inhibition) (Pseudomonas corrugata [3]) | LC, lethal concentration (100% inhibition) (Pseudomonas corrugata [3]) | MIC (>90% inhibition) [4] | LC, lethal concentration (100% inhibition) [4] | MIC (>90% inhibition) [5] | LC, lethal concentration (100% inhibition) [5] | MIC (>90% inhibition) (Xanthomonas vesicatoria [6]) | LC, lethal concentration (100% inhibition) (Xanthomonas vesicatoria [6]) | Minimal inhibition concentration (MIC) for complete inhibition of spore germination/mycelial growth (Alternaria alternata) [µg/mL] | Minimal inhibition concentration (MIC) for complete inhibition of spore germination/mycelial growth (Botrytis cinerea) [µg/mL] | Minimal inhibition concentration (MIC) for complete inhibition of spore germination/mycelial growth (Cladosporium herbarum) [µg/mL] | further results |
| --- | --- | --- | --- | --- | --- | --- | --- | --- | --- | --- | --- | --- | --- | --- | --- | --- |
| LRFIKKILKKLI-NH2 [SP10-4] | 0.25/0.25 μg/ml | 0.25/0.25 μg/ml | 2.5/2.5 μg/ml | 2.5/2.5 μg/ml | 2.5/2.5 μg/ml | 2.5/2.5 μg/ml | 0.25 µg/mL | 0.5 µg/mL | 1.0/1.0 μg/ml | 1.0/1.0 μg/ml | 0.1 µg/mL | 0.25 µg/mL |  |  |  |  |
| LRALAKALKHKL-NH2 [SP11, LRALAKALKHKL -NH2] |  |  |  |  |  |  |  |  |  |  |  |  | >100 | >100 | 20 |  |
| LRIIRRILRRLI-NH2 [SP10-6] | 2.5/2.5 μg/ml | 2.5/2.5 μg/ml | 2.5 µg/mL | 5.0 µg/mL | 2.5/2.5 μg/ml | 2.5/2.5 μg/ml | 2.5/2.5 μg/ml | 2.5/2.5 μg/ml | 1.0/1.0 μg/ml | 1.0/1.0 μg/ml | 1.0/1.0 μg/ml | 1.0/1.0 μg/ml |  |  |  |  |
| LRFLKKILKKLF-NH2 [SP10-1] | 1.0 µg/mL | 2.5 µg/mL | 2.5 µg/mL | 5.0 µg/mL | 2.5/2.5 μg/ml | 2.5/2.5 μg/ml | 2.5/2.5 μg/ml | 2.5/2.5 μg/ml | 1.0/1.0 μg/ml | 1.0/1.0 μg/ml | 2.5/2.5 μg/ml | 2.5/2.5 μg/ml |  |  |  |  |
| LKALRKALKHLA-NH2 [SP12, LKALRKALKHLA -NH2] |  |  |  |  |  |  |  |  |  |  |  |  | >100 | >100 | 20 | Hemolytic activity, concentration where at least 25% hemolysis was observed (human erythrocytes): >200 µg/mL; Minimal inhibition concentration (MIC) for complete inhibition of bacterial growth [7]: >40 µg/mL; Minimal inhibition concentration (MIC) for complete inhibition of bacterial growth [8]: >40 µg/mL; Minimal inhibition concentration (MIC) for complete inhibition of bacterial growth (Xanthomonas vesicatoria [9]): 20 µg/mL; Minimal inhibition concentration (MIC) for complete inhibition of bacterial growth [10]: 2.5 µg/mL; Minimal inhibition concentration (MIC) for complete inhibition of bacterial growth [11]: 10 µg/mL; Minimal inhibition concentration (MIC) for complete inhibition of bacterial growth (Pseudomonas corrugata [12]): >40 µg/mL |
